# Target: T1, Human immunodeficiency virus type 1 protease (Human immunodeficiency virus 1, UniProt Q72874)
# Experiment: Inhibitory concentration against human immunodeficiency virus -1 protease
row,Compound,Ki
1,CC[C@H](C)[C@@H](NC(=O)[C@@H](NC(=O)CCCCCCCCCCCCCCC(=O)N[C@H](CC(=O)N[C@@H](Cc1ccccc1)C(=O)O)C(N)=O)[C@H](C)O)C(=O)NC(Cc1ccc([N+](=O)[O-])c(O)c1)C(N)=O (some centres not stated),164 nM
2,CC[C@H](C)[C@@H](NC(=O)[C@@H](NC(=O)CCCCCCCCCCCCCCC(=O)N[C@H](CC(=O)N[C@@H](Cc1ccccc1)C(=O)O)C(N)=O)[C@H](C)O)C(=O)N[C@@H](Cc1ccc(C(=O)c2ccccc2)cc1)C(N)=O,314 nM
3,CCC(C)[C@H](NC(=O)CCCCCCCCCCCCCCC(=O)N[C@@H](CC(N)=O)C(=O)NC(C(=O)O)C1CCCCC1)C(=O)N[C@H](Cc1ccccc1)C(N)=O (some centres not stated),254 nM
4,CCC(C)[C@@H](NC(=O)[C@@H](NC(=O)CCCCCCCCCCCCCCC(=O)N[C@@H](Cc1ccc(F)c(F)c1)C(=O)N[C@@H](Cc1ccccc1)C(=O)O)C(C)O)C(=O)NC(CO)C(N)=O (some centres not stated),106 nM
5,CCC(C)[C@@H](NC(=O)[C@@H](NC(=O)CCCCCCCCCCCCCCC(=O)N[C@@H](Cc1ccc([N+](=O)[O-])cc1)C(=O)N[C@@H](Cc1ccccc1)C(=O)O)C(C)O)C(=O)NC(CO)C(N)=O (some centres not stated),103 nM
6,CC[C@H](C)[C@@H](NC(=O)[C@H]([C@H](C)O)N(C)C(=O)CCCCCCCCCCCCCCC(=O)N[C@H](Cc1ccccc1)C(=O)N[C@@H](Cc1ccccc1)C(=O)O)C(=O)NC(CO)C(N)=O (some centres not stated),112 nM
7,CC[C@H](C)[C@@H](NC(=O)[C@H]([C@H](C)O)N(C)C(=O)CCCCCCCCCCCCCCC(=O)N[C@@H](C(=O)N[C@@H](Cc1ccccc1)C(=O)O)C(C)C)C(=O)NC(CO)C(N)=O (some centres not stated),202 nM
8,CCC(C)[C@H](NC(=O)CCCCCCCCCCCCCCC(=O)N[C@@H](CC(N)=O)C(=O)NC(CC1CCCCC1)C(=O)O)C(=O)N[C@H](Cc1ccccc1)C(N)=O (some centres not stated),285 nM
9,CCC(C)[C@@H](NC(=O)[C@@H](NC(=O)CCCCCCCCCCCCCCC(=O)N[C@H](CC(=O)N[C@@H](Cc1ccccc1)C(=O)O)C(N)=O)C(C)O)C(=O)N[C@@H](Cc1ccccc1)C(N)=O (some centres not stated),210000 nM
10,CC[C@H](C)[C@@H](NC(=O)CCCCCCCCCCCCCCC(=O)N(C)[C@H](C(=O)N[C@@H](C(=O)NC(CO)C(N)=O)[C@@H](C)CC)[C@H](C)O)C(=O)N[C@@H](Cc1ccccc1)C(=O)O (some centres not stated),140000 nM
11,CC[C@H](C)[C@@H](NC(=O)[C@@H](NC(=O)CCCCCCCCCCCCCCC(=O)N[C@H](CC(=O)N[C@@H](Cc1ccccc1)C(=O)O)C(N)=O)[C@H](C)O)C(=O)N[C@@H](Cc1ccccc1)C(=O)N[C@@H](Cc1ccccc1)C(N)=O,361 nM
12,CCC(C)[C@@H](NC(=O)[C@@H](NC(=O)CCCCCCCCCCCCCCC(=O)N[C@@H](Cc1ccc(O)c([N+](=O)[O-])c1)C(=O)N[C@@H](Cc1ccccc1)C(=O)O)C(C)O)C(=O)NC(CO)C(N)=O (some centres not stated),102 nM
13,CCC(C)[C@@H](NC(=O)C(CCC(C)C)NC(=O)CCCCCCCCCCCCCCC(=O)N[C@H](CC(=O)N[C@@H](Cc1ccccc1)C(=O)O)C(N)=O)C(=O)N[C@@H](Cc1ccccc1)C(N)=O (some centres not stated),502000 nM
14,CCC(C)[C@H](NC(=O)CCCCCCCCCCCCCCC(=O)N[C@@H](CC(N)=O)C(=O)N[C@@H](Cc1ccc(C(=O)c2ccccc2)cc1)C(=O)O)C(=O)N[C@H](Cc1ccccc1)C(N)=O (some centres not stated),223 nM
15,CC[C@H](C)[C@@H](NC(=O)[C@H]([C@H](C)O)N(C)C(=O)CCCCCCCCCCCCCCC(=O)N[C@H](CCc1ccccc1)C(=O)N[C@@H](Cc1ccccc1)C(=O)O)C(=O)NC(CO)C(N)=O (some centres not stated),160 nM
16,CCC(C)[C@H](NC(=O)CCCCCCCCCCCCCCC(=O)N[C@@H](CC(N)=O)C(=O)N[C@@H](CCc1ccccc1)C(=O)O)C(=O)N[C@H](Cc1ccccc1)C(N)=O (some centres not stated),268 nM
17,CC[C@H](C)[C@@H](NC(=O)[C@H]([C@H](C)O)N(C)C(=O)CCCCCCCCCCCCCCC(=O)NC(CC(C)C)C(=O)N[C@@H](Cc1ccccc1)C(=O)O)C(=O)NC(CO)C(N)=O (some centres not stated),273 nM
18,CC[C@H](C)[C@@H](NC(=O)[C@H]([C@H](C)O)N(C)C(=O)CCCCCCCCCCCCCCC(=O)N[C@H](Cc1ccc(C#N)cc1)C(=O)N[C@@H](Cc1ccccc1)C(=O)O)C(=O)NC(CO)C(N)=O (some centres not stated),140 nM
19,CC[C@H](C)[C@@H](NC(=O)[C@@H](NC(=O)CCCCCCCCCCCCCCC(=O)N[C@H](CC(=O)N[C@@H](Cc1ccccc1)C(=O)O)C(N)=O)[C@H](C)O)C(=O)N[C@@H](Cc1ccc(OCc2ccccc2)cc1)C(N)=O,414 nM
20,CC[C@H](C)[C@@H](NC(=O)[C@H]([C@H](C)O)N(C)C(=O)CCCCCCCCCCCCCCC(=O)Nc1ccccc1C(=O)N[C@@H](Cc1ccccc1)C(=O)O)C(=O)NC(CO)C(N)=O (some centres not stated),235000 nM
21,CC[C@H](C)[C@@H](NC(=O)[C@@H](NC(=O)CCCCCCCCCCCCCCC(=O)N[C@H](CC(=O)N[C@@H](Cc1ccccc1)C(=O)O)C(N)=O)C(C)O)C(=O)N[C@@](C)(C(N)=O)c1cccc2ccccc12 (some centres not stated),127 nM
22,CCC(C)[C@@H](NC(=O)[C@@H](NC(=O)CCCCCCCCCCCCCCC(=O)N[C@@H](C(=O)N[C@@H](Cc1ccccc1)C(=O)O)c1ccc(OCc2ccccc2)cc1)C(C)O)C(=O)NC(CO)C(N)=O (some centres not stated),110 nM
23,CCC(C)[C@H](NC(=O)CCCCCCCCCCCCCCC(=O)N[C@@H](CC(N)=O)C(=O)N[C@@H](Cc1ccc([N+](=O)[O-])cc1)C(=O)O)C(=O)N[C@H](Cc1ccccc1)C(N)=O (some centres not stated),384 nM
24,CC(C)C[C@H](NC(=O)[C@@H](NC(=O)CCCCCCCCCCCCCCC(=O)N[C@H](CC(=O)N[C@@H](Cc1ccccc1)C(=O)O)C(N)=O)C(C)O)C(=O)N[C@@H](Cc1ccccc1)C(N)=O (some centres not stated),3000 nM
25,CCC(C)[C@H](NC(=O)CCCCCCCCCCCCCCC(=O)N[C@@H](CC(N)=O)C(=O)NC(Cc1ccc2ccccc2c1)C(=O)O)C(=O)N[C@H](Cc1ccccc1)C(N)=O (some centres not stated),267 nM

# Target: T1, Human immunodeficiency virus type 1 protease
# Experiment: Inhibitory concentration against human immunodeficiency virus-1 protease
row,Compound,IC50
1,CC[C@H](C)[C@@H](NC(=O)[C@@H](NC(=O)CCCCCCCCCCCCCCC(=O)N[C@H](CC(=O)N[C@@H](Cc1ccccc1)C(=O)O)C(N)=O)[C@H](C)O)C(=O)N[C@@H](Cc1ccc(F)c(F)c1)C(N)=O,872000 nM
2,CC[C@H](C)[C@@H](NC(=O)[C@@H](NC(=O)CCCCCCCCCCCCCCC(=O)N[C@H](CC(=O)N[C@@H](Cc1ccccc1)C(=O)O)C(N)=O)[C@H](C)O)C(=O)NC(CCc1ccccc1)C(N)=O (some centres not stated),1300 nM
3,CCCCC(NC(=O)CCCCCCCCCCCCCCC(=O)N[C@H](CC(=O)N[C@@H](Cc1ccccc1)C(=O)O)C(N)=O)C(=O)N[C@@H](C(=O)N[C@@H](Cc1ccccc1)C(N)=O)C(C)CC (some centres not stated),1600 nM
4,CC[C@H](C)[C@@H](NC(=O)[C@@H](NC(=O)CCCCCCCCCCCCCCC(=O)N[C@H](CC(=O)N[C@@H](Cc1ccccc1)C(=O)O)C(N)=O)[C@H](C)O)C(=O)N[C@@H](Cc1ccc([N+](=O)[O-])cc1)C(N)=O,590000 nM
5,CCC(C)[C@@H](NC(=O)[C@@H](NC(=O)CCCCCCCCCCCCCCC(=O)N[C@H](CC(=O)N[C@@H](Cc1ccccc1)C(=O)O)C(N)=O)C(C)O)C(=O)N[C@@H](Cc1ccccc1)C(N)=O (some centres not stated),1.1 nM
6,CCC(C)[C@@H](NC(=O)[C@H](C(C)O)N(C)C(=O)CCCCCCCCCCCCCCC(=O)NC(Cc1ccc(N)cc1)C(=O)N[C@@H](Cc1ccccc1)C(=O)O)C(=O)NC(CO)C(N)=O (some centres not stated),1.2 nM
7,CC[C@H](C)[C@@H](NC(=O)[C@@H](NC(=O)CCCCCCCCCCCCCCC(=O)N[C@H](CC(=O)N[C@@H](Cc1ccccc1)C(=O)O)C(N)=O)[C@H](C)O)C(=O)N[C@@H](Cc1ccc(N)cc1)C(N)=O,3600 nM
8,CC[C@H](C)[C@@H](NC(=O)[C@@H](NC(=O)CCCCCCCCCCCCCCC(=O)N[C@H](CC(=O)N[C@@H](Cc1ccccc1)C(=O)O)C(N)=O)[C@H](C)O)C(=O)N[C@H](Cc1ccc(Br)cc1)C(N)=O,1700 nM
9,CCC(C)[C@@H](NC(=O)[C@H](C(C)O)N(C)C(=O)CCCCCCCCCCCCCCC(=O)NC(Cc1ccc(OP(=O)(O)O)cc1)C(=O)N[C@@H](Cc1ccccc1)C(=O)O)C(=O)NC(CO)C(N)=O (some centres not stated),2100 nM
10,CCC(C)[C@@H](NC(=O)C(Cc1ccc(F)c(F)c1)NC(=O)CCCCCCCCCCCCCCC(=O)N[C@H](CC(=O)N[C@@H](Cc1ccccc1)C(=O)O)C(N)=O)C(=O)N[C@@H](Cc1ccccc1)C(N)=O (some centres not stated),1100 nM
11,CCC(C)[C@@H](NC(=O)C(CCc1ccccc1)NC(=O)CCCCCCCCCCCCCCC(=O)N[C@H](CC(=O)N[C@@H](Cc1ccccc1)C(=O)O)C(N)=O)C(=O)N[C@@H](Cc1ccccc1)C(N)=O (some centres not stated),980 nM
12,CC[C@H](C)[C@@H](NC(=O)[C@@H](NC(=O)CCCCCCCCCCCCCCC(=O)N[C@H](CC(=O)N[C@@H](Cc1ccccc1)C(=O)O)C(N)=O)[C@H](C)O)C(=O)N1Cc2[nH]c3ccccc3c2CC1C(N)=O (some centres not stated),3100 nM
13,CC[C@H](C)[C@@H](NC(=O)[C@H]([C@H](C)O)N(C)C(=O)CCCCCCCCCCCCCCC(=O)NC(Cc1ccc(O)cc1)C(=O)N[C@@H](Cc1ccccc1)C(=O)O)C(=O)NC(CO)C(N)=O (some centres not stated),774 nM
14,CC[C@H](C)[C@@H](NC(=O)[C@@H](NC(=O)CCCCCCCCCCCCCCC(=O)N[C@H](CC(=O)N[C@@H](Cc1ccccc1)C(=O)O)C(N)=O)[C@H](C)O)C(=O)N[C@@H](Cc1cc(I)c(O)c(I)c1)C(N)=O,740000 nM
15,CC[C@H](C)[C@@H](NC(=O)[C@@H](NC(=O)CCCCCCCCCCCCCCC(=O)N[C@H](CC(=O)N[C@@H](Cc1ccccc1)C(=O)O)C(N)=O)[C@H](C)O)C(=O)N[C@H](Cc1ccc(C#N)cc1)C(N)=O,1400 nM
16,CC(C)C[C@H](NC(=O)[C@@H](NC(=O)CCCCCCCCCCCCCCC(=O)N[C@H](CC(=O)N[C@@H](Cc1ccccc1)C(=O)O)C(N)=O)C(C)O)C(=O)N[C@@H](Cc1ccccc1)C(N)=O (some centres not stated),5.4 nM
17,CC[C@H](C)[C@@H](NC(=O)C(NC(=O)CCCCCCCCCCCCCCC(=O)N[C@H](CC(=O)N[C@@H](Cc1ccccc1)C(=O)O)C(N)=O)C(C)(C)C)C(=O)N[C@@H](Cc1ccccc1)C(N)=O (some centres not stated),7700 nM
18,CCC(C)[C@@H](NC(=O)C(NC(=O)CCCCCCCCCCCCCCC(=O)N[C@H](CC(=O)N[C@@H](Cc1ccccc1)C(=O)O)C(N)=O)c1ccccc1)C(=O)N[C@@H](Cc1ccccc1)C(N)=O (some centres not stated),2100 nM

# Target: Human immunodeficiency virus type 1 protease (Human immunodeficiency virus 1) (UniProt Q72874)
# Experiment: Percent inhibition of human immunodeficiency virus-1 protease after 1 uM treatment
row,inhibition,Compound
1,14%,CCCC(NC(=O)CCCCCCCCCCCCCCC(=O)N[C@H](CC(=O)N[C@@H](Cc1ccccc1)C(=O)O)C(N)=O)C(=O)N[C@@H](C(=O)N[C@@H](Cc1ccccc1)C(N)=O)[C@@H](C)CC (some centres not stated)
2,8%,CCC(C)[C@@H](NC(=O)[C@@H](NC(=O)CCCCCCCCCCCCCCC(=O)N[C@H](CC(=O)N[C@@H](Cc1ccccc1)C(=O)O)C(N)=O)C(C)O)C(=O)NC(CO)C(N)=O (some centres not stated)
3,30%,CC(O)[C@H](NC(=O)CCCCCCCCCCCCCCC(=O)N[C@H](CC(=O)N[C@@H](Cc1ccccc1)C(=O)O)C(N)=O)C(=O)N[C@H](CC1CCCCC1)C(=O)N[C@@H](Cc1ccccc1)C(N)=O (some centres not stated)
4,45%,CC(O)[C@H](NC(=O)CCCCCCCCCCCCCCC(=O)N[C@H](CC(=O)N[C@@H](Cc1ccccc1)C(=O)O)C(N)=O)C(=O)N[C@@H](C(=O)N[C@@H](Cc1ccccc1)C(N)=O)C1CCCCC1 (some centres not stated)

# Source: ChEMBL document CHEMBL1143555, “Development of low molecular weight HIV-1 protease dimerization inhibitors” (J Med Chem, 2005)
